For 26 compounds, AC50 results are on record in ChEMBL document CHEMBL5291721, “A preclinical secondary pharmacology resource illuminates target-adverse drug reaction associations of marketed drugs” (Nat Commun, 2023).

Test [1] addresses Histamine H2 receptor (Homo sapiens, UniProt P25021). The class given is functional, cell-based.
Test [2] concerns the target T1, Prostaglandin G/H synthase 1 (Rattus norvegicus, UniProt Q63921).
T1 sequence (Q63921 whole entry): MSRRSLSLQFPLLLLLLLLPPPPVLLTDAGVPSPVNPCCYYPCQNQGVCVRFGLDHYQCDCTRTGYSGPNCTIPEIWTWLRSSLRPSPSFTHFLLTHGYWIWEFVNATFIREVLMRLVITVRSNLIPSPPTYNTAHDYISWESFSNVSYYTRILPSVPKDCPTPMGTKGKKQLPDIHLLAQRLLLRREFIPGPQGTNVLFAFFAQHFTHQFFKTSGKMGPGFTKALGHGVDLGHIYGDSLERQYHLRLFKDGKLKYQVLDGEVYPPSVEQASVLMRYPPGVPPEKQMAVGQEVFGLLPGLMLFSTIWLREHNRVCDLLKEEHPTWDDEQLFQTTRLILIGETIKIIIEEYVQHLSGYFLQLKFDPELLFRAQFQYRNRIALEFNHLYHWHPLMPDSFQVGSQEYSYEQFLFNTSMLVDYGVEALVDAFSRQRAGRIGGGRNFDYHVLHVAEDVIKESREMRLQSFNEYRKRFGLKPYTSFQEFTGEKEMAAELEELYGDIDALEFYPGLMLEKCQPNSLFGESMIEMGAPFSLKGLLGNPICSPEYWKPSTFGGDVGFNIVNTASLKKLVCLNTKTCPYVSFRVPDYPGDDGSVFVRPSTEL
The format is functional.

Test [3] concerns the target T2, Adenosine receptor A1 (Homo sapiens, UniProt P30542).
T2 sequence (P30542 whole entry): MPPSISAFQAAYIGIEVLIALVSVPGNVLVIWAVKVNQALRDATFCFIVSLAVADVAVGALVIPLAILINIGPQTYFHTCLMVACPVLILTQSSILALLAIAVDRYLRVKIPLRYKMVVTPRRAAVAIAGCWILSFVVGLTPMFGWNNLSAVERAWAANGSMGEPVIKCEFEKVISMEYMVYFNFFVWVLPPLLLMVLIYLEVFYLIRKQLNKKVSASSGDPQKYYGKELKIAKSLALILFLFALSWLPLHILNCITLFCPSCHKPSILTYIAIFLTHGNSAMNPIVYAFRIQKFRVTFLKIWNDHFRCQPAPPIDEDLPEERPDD

For test [4], the target named is T3, Alpha-1A adrenergic receptor (Homo sapiens, UniProt P35348).
T3 sequence (P35348 whole entry): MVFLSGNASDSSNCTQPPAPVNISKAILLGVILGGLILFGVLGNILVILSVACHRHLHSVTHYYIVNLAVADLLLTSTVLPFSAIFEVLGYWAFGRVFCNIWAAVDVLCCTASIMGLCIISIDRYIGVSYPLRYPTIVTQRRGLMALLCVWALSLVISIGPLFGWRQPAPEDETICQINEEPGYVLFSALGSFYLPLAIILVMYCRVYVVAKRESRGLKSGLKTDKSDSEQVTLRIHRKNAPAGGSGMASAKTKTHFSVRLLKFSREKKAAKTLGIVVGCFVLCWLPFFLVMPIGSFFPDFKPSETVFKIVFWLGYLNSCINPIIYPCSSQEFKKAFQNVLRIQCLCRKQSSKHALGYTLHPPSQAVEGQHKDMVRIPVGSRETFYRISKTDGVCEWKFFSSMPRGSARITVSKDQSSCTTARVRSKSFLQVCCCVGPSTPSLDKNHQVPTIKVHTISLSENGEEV
The format is functional, cell-based.

Test [5] has as its target Cannabinoid receptor 1 (Homo sapiens, UniProt P21554). The class given is functional, cell-based.

Broadly, the AC50 is the concentration giving half of the maximal activity seen.
Also: assay procedure not described here.

Sequence of Histamine H2 receptor (P25021 whole entry): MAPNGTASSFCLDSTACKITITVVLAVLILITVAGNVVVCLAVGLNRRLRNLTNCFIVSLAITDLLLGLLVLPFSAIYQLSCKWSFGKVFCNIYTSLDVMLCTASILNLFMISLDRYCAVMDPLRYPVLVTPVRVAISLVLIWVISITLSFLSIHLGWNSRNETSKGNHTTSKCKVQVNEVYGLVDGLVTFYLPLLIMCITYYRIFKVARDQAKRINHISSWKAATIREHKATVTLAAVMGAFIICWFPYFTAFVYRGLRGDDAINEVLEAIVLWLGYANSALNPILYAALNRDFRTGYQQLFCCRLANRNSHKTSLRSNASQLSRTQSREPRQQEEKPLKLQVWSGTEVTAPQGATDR
Sequence of Cannabinoid receptor 1 (P21554 whole entry): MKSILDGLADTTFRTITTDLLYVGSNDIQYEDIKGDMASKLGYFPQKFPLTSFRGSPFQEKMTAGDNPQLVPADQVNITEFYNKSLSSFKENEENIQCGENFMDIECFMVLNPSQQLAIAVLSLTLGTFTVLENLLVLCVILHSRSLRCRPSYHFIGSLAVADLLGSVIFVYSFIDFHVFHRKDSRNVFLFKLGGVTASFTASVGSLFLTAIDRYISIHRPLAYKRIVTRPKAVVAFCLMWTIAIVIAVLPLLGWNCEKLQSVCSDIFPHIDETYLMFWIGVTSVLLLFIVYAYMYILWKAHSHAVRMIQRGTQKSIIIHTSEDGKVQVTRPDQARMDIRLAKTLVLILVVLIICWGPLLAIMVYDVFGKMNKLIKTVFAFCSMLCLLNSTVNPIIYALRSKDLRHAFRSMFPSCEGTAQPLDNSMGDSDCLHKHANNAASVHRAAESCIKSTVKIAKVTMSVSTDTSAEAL

With `Cc1nnc(SCC2=C(C(=O)O)N3C(=O)[C@@H](NC(=O)Cn4cnnn4)[C@H]3SC2)s1` [CEFAZOLIN], the AC50 was over 30 µM in test [1]; 160 µM in test [2]; over 300 µM in test [3]; over 300 µM in test [4]; over 300 µM in test [5].

For the compound `CC[C@H](C)C(=O)O[C@H]1C[C@@H](C)C=C2C=C[C@H](C)[C@H](CC[C@@H]3C[C@@H](O)CC(=O)O3)[C@H]21` [LOVASTATIN], the AC50 was over 10 µM in test [1], over 30 µM in test [2], over 30 µM in test [3] and over 30 µM in test [5].

Take `CC(C)[C@H](N)C(=O)OCCOCn1cnc2c(=O)[nH]c(N)nc21` [VALACYCLOVIR]: the AC50 in test [1] was over 10 µM; in test [2] it was over 30 µM; in test [3], over 30 µM; in test [4] it was over 30 µM; in test [5] it was over 30 µM.

`CC=CC1=C(C(=O)O)N2C(=O)[C@@H](NC(=O)[C@H](N)c3ccc(O)cc3)[C@H]2SC1` [CEFPROZIL]: the AC50 in test [1] was over 30 µM; in test [2] it was 13.7 µM; in test [3], over 30 µM; in test [4], over 30 µM.

Regarding `Cc1nc(Nc2ncc(C(=O)Nc3c(C)cccc3Cl)s2)cc(N2CCN(CCO)CC2)n1` [DASATINIB], the AC50 is over 30 µM in test [1]; over 30 µM in test [2]; over 30 µM in test [3]; 10 µM in test [4]; over 30 µM in test [5].

On to `CC1(C)S[C@@H]2[C@H](NC(=O)C(C(=O)O)c3ccccc3)C(=O)N2[C@H]1C(=O)O` (stereo partly drawn) [CARBENICILLIN], for which the AC50 in test [1], in test [2], in test [3], in test [4] and in test [5] was over 30 µM in each case.

For `Clc1ccc(Cn2c(CN3CCCC3)nc3ccccc32)cc1` [CLEMIZOLE], the AC50 in test [2] was over 30 µM; in test [3] it was over 30 µM; in test [4], 13 µM; in test [5], over 30 µM.

Turning to `CC(C)Cc1ccc([C@H](C)C(=O)O)cc1` [DEXIBUPROFEN], the AC50 in test [3], in test [4] and in test [5] was over 30 µM in each case.

In the case of `CCCNC(=O)NS(=O)(=O)c1ccc(Cl)cc1` [CHLORPROPAMIDE], the half-maximal activity concentration (AC50) in test [1] was over 10 µM; in test [2], over 30 µM; in test [3] it was over 30 µM; in test [4], over 30 µM; in test [5], over 30 µM.

For `CN(CCOc1ccc(CC2SC(=O)NC2=O)cc1)c1ccccn1` (stereo not drawn) [ROSIGLITAZONE], the concentration at half-maximal activity (AC50) is over 30 µM in test [1]; over 30 µM in test [2]; over 30 µM in test [3]; 11 µM in test [4]; over 30 µM in test [5].

Turning to `CC(C(=O)O)c1ccc2oc(-c3ccc(Cl)cc3)nc2c1` (stereo not drawn) [BENOXAPROFEN], the concentration at half-maximal activity (AC50) was over 30 µM in test [1], over 30 µM in test [3], 23 µM in test [4] and over 30 µM in test [5].

For `CNC[C@H](O)c1ccc(O)c(O)c1` [EPINEPHRINE], the half-maximal activity concentration (AC50) in test [2], in test [3] and in test [5] was over 30 µM in each case.

As for `CC(=O)Nc1ccc(CC(=O)O)cc1` [ACTARIT], the AC50 in test [1], in test [2], in test [3], in test [4] and in test [5] was over 30 µM each time.

As to `CCOc1nc2cccc(C(=O)O)c2n1Cc1ccc(-c2ccccc2-c2nnn[nH]2)cc1`, the AC50 in test [1] was over 10 µM; in test [2], over 30 µM; in test [3], over 30 µM; in test [4], over 30 µM; in test [5], over 30 µM.

Regarding `CCCCCCCN(CC)CCCC(O)c1ccc(NS(C)(=O)=O)cc1` (stereo not drawn) [IBUTILIDE], the AC50 in test [1], in test [2], in test [3] and in test [4] was over 30 µM throughout.

Regarding `S=P(N1CC1)(N1CC1)N1CC1` [THIOTEPA], the half-maximal activity concentration (AC50) in test [2] was over 30 µM; in test [3], over 30 µM; in test [4], 0.044 µM; in test [5] it was over 30 µM.

Take `CNC(=C[N+](=O)[O-])NCCSCc1csc(CN(C)C)n1` [NIZATIDINE]: the AC50 in test [1], in test [2] and in test [3] was over 10 µM each time.

Turning to `CC[C@@H](CO)NC(=O)[C@@H]1C=C2c3cccc4c3c(cn4C)C[C@H]2N(C)C1` [METHYSERGIDE], the AC50 is 2.78 µM in test [1], over 30 µM in test [2], over 30 µM in test [3] and over 30 µM in test [5].

Turning to `CC(C)(O/N=C(\C(=O)N[C@@H]1C(=O)N2C(C(=O)[O-])=C(C[n+]3ccccc3)CS[C@H]12)c1csc(N)n1)C(=O)O` [CEFTAZIDIME], the AC50 in test [1] is over 30 µM; in test [2], over 300 µM; in test [3], over 300 µM; in test [4], over 300 µM; in test [5] it was over 300 µM.

As for `CCC(=O)O[C@]1(C(=O)CCl)[C@@H](C)C[C@H]2[C@@H]3CCC4=CC(=O)C=C[C@]4(C)[C@@]3(F)[C@@H](O)C[C@@]21C` [CLOBETASOL PROPIONATE], the AC50 in test [1], in test [2], in test [3], in test [4] and in test [5] was over 30 µM throughout.

As for `COc1cc(C(=O)NS(=O)(=O)c2ccccc2C)ccc1Cc1cn(C)c2ccc(NC(=O)OC3CCCC3)cc12` [ZAFIRLUKAST], the concentration at half-maximal activity (AC50) in test [1] is over 10 µM; in test [2] it was 5.1 µM; in test [3], over 30 µM; in test [4], 5.9 µM; in test [5], over 30 µM.

In the case of `CCOc1cc([C@@H](CS(C)(=O)=O)N2C(=O)c3cccc(NC(C)=O)c3C2=O)ccc1OC`, the half-maximal activity concentration (AC50) in test [2], in test [3], in test [4] and in test [5] was over 30 µM in each case.

Take `Cc1onc(-c2c(F)cccc2Cl)c1C(=O)N[C@@H]1C(=O)N2[C@@H]1SC(C)(C)[C@@H]2C(=O)O` [FLOXACILLIN]: the AC50 in test [2], in test [3], in test [4] and in test [5] was over 30 µM throughout.

`CN1Cc2c(N)cccc2C(c2ccccc2)C1` (stereo not drawn) [NOMIFENSINE]: the half-maximal activity concentration (AC50) is over 30 µM in test [1]; 7.5 µM in test [2]; over 30 µM in test [3]; 13 µM in test [4]; over 30 µM in test [5].

For `CCCc1cc(=O)[nH]c(=S)[nH]1` [PROPYLTHIOURACIL], the values for the AC50 in test [1], in test [2] and in test [3] were over 10 µM, 6.6 µM and over 10 µM, respectively.

With `Cn1cc(C(=O)[C@@H]2CCc3nc[nH]c3C2)c2ccccc21` [RAMOSETRON], the AC50 in test [1], in test [2], in test [3], in test [4] and in test [5] was over 30 µM in each case.
